“And” between values parts separate entries of the source, which are not always exact repeats. Equal entries are not always repeated. Values belong to the molecule of their own block, whether it stands above or below them.
Experiments:
[1] = target: T1, HuR-ARE^Msi1 interaction (full length HuR) (Homo sapiens, UniProt Q15717); experiment: FP competition assay, HuR-ARE^Msi1 binding; format: biochemical; conditions: 10 nM HuR, 2 nM fluorescein-labeled ARE^Msi1; n = 3; read-out: IC50, inhibition of HuR-ARE^Msi1 interaction
T1 construct: full length HuR (326 residues); made in house; host or cells: E. coli BL21 (DE3)
Protocol: Synthetic RNA oligos were from Dharmacon. For FP assay, fluorescein-tagged ARE^Msi1 oligo derived from the 3’-UTR of Musashi RNA-binding protein 1 (Msi1) with the sequence 5’-GCUUUUAUUUAUUUUG-3’ and 11-mer ARE^c-fos RNA oligo (5’-AUUUUUAUUUU-3’) identical to the c-fos RNA sequence used in the crystal structure of HuR-RNA complex were used. For NMR studies, unmodified 11-mer ARE^c-fos RNA oligo [8] was used. Prior to the addition of RNA to the protein, the RNA was heated at 95°C for 5 min followed by immediate cooling on ice for 5 min. […]
(§1) FP competition assay for screening and hit validation were carried out as reported previously. […] Measurements were taken using a BioTek Synergy H4 hybrid plate reader (Biotek, Winooski, VT) after incubating for 2 hours at room temperature. […] Percent inhibition was calculated by comparing to the DMSO (0% inhibition) and labeled free RNA only (100% inhibition) controls.
A FP-based high throughput screen on HuR and a 16-mer ARE^Msi1 RNA oligomer from the 3’-UTR of Musashi1 (Msi1) mRNA previously identified novel small molecule inhibitors of HuR-ARE interaction. […] Multi-dose effect was determined to verify the inhibition of HuR-ARE interaction. […]

[2] = target: T2, HuR-ARE^c-fos interaction (full length HuR) (Homo sapiens, UniProt Q15717); experiment: FP competition assay, HuR-ARE^c-fos binding; format: biochemical; conditions: 10 nM full length HuR, 2 nM fluorescein-labeled ARE^c-fos; n = 3; read-out: IC50, disruption of HuR-ARE^c-fos binding
T2 construct: full length HuR (326 residues); made in house; host or cells: E. coli BL21 (DE3)
Protocol: (§2) Synthetic RNA oligos were from Dharmacon. For FP assay, fluorescein-tagged ARE^Msi1 oligo derived from the 3’-UTR of Musashi RNA-binding protein 1 (Msi1) with the sequence 5’-GCUUUUAUUUAUUUUG-3’ and 11-mer ARE^c-fos RNA oligo (5’-AUUUUUAUUUU-3’) identical to the c-fos RNA sequence used in the crystal structure of HuR-RNA complex were used. For NMR studies, unmodified 11-mer ARE^c-fos RNA oligo [8] was used. Prior to the addition of RNA to the protein, the RNA was heated at 95°C for 5 min followed by immediate cooling on ice for 5 min. The azaphilone derivatives used herein were obtained by semisynthetic diversification of asperbenzaldehyde, which was purified from a strain of Aspergillus nidulans that was engineered to overproduce this compound as described elsewhere. Compounds were dissolved in dimethyl sulfoxide (DMSO) to form 10 mM stock solutions; for NMR studies, deuterated dimethyl sulfoxide (d6-DMSO) was used.
as §1, with “controls. […]” for “controls.”

[3] = target: T3, HuR RRM1/2-ARE^c-fos interaction (Homo sapiens, UniProt Q15717); experiment: FP competition assay, HuR RRM1/2-ARE^c-fos binding; format: biochemical; conditions: 50 nM HuR RRM1/2, 2 nM fluorescein-labeled ARE^c-fos; n = 3; read-out: IC50, disruption of HuR RRM1/2-ARE^c-fos binding
T3 construct: HuR RRM1/2 (residues 18–186); made in house; host or cells: E. coli BL21 (DE3)
Protocol: as §2
as §1, with “controls. […]” for “controls.”

HuR = target: T4, HuR (Homo sapiens, UniProt Q15717); experiment: Surface plasmon resonance, direct binding to immobilized HuR; conditions: injected at 0–125 μM, 20°C; n = 2
T4 construct: made in house; host or cells: E. coli BL21 (DE3)
Protocol: Surface plasmon resonance (SPR) datasets were acquired using a BIACORE 3000 (GE Healthcare) at 20°C as described. Briefly, HuR was immobilized into a CM5 chip by amine-coupling chemistry and AZA-9 dissolved in buffer (20 mM HEPES pH 7.4, 150 mM NaCl, 3 mM EDTA, 0.05% p20 (v/v), 5% DMSO (v/v)) was injected into the flow cell at a flow rate of 60 μL/min. The mixtures complexes were allowed to associate for 400 sec and dissociate for 160 sec. SPR sensorgrams were generated using Scrubber2 (BioLogic Software, Australia).
Fig 1 AZA-9 inhibits HuR-ARE RNA interaction and binds directly to HuR. Titration of 2 nM ARE^c-fos and control RNA (a 16-nt fluorescein-labeled RNA oligo with random sequence) with (A) HuR and (B) HuR RRM1/2 (n = 3). (C) Dose-response curve of AZA-9 disrupting HuR-ARE^c-fos binding in FP assay using 10 nM HuR and 2 nM fluorescein-labeled ARE^c-fos (n = 3). (D) Dose-response curve of AZA-9 disrupting HuR RRM1/2-ARE^c-fos binding in FP assay using 50 nM HuR RRM1/2 and 2 nM fluorescein-labeled ARE^c-fos (n = 3). (E) SPR sensorgrams of AZA-9 injected at increasing concentrations of 0–125 μM into a flow cell containing immobilized HuR (n = 2). Structure of AZA-9 is shown on the right. The following were the negative controls used–random RNA in (A) and (B); and AZA-15 in (C) and (D). […]

HuR RRM1/2 [4] = target: T5, HuR RRM1/2 (Homo sapiens, UniProt Q15717); experiment: NMR titration of 15N/ILV-labeled HuR RRM1/2; format: binding; conditions: equimolar concentration (1:1), 50 μM 15N HuR RRM1/2
T5 construct: HuR RRM1/2 (residues 18–186); made in house; host or cells: E. coli BL21 (DE3)
Protocol: Proteins for NMR were dissolved in NMR buffer (100 mM NaCl, 10 mM NaPO4 pH 6.8, 10% D2O). ^15N NMR data were acquired using Bruker Avance 800 MHz spectrometer with a TCI cryoprobe. ILV ^13C NMR data were acquired using on a Bruker Avance III 600 MHz spectrometer. NMR data were acquired at 25°C, processed using NMRPipe and analyzed using NMRView. For ^15N and ILV chemical shift mapping, 80 μM ^15N/ILV-labeled HuR RRM1/2 was titrated with unlabeled ARE^c-fos RNA at increasing molar ratios of 1:0, 1:0.5, 1:1, and 1:1.7. AZA-9 was titrated at 1:1 and 1:2 molar ratios into 50 μM ^15N/ ILV-labeled HuR RRM1/2 in NMR buffer with 10% d6-DMSO. […] The ^15N titrations were monitored by acquiring 2D ^1H-^15N TROSY spectra, and the ILV titrations were monitored by acquiring 2D ^1H-^13C HSQC spectra. The published backbone amide assignments of HuR RRM1/2 (BMRB entry 26628) and the ILV assignments made herein were used in the NMR analysis.
The interaction of AZA-9 with HuR RRM1/2 was characterized by NMR methods. […] Specifically, residue R97 in the inter-domain linker region (whose intensity reduced by ~50% at equimolar concentration of AZA-9, Fig 4C) has been previously reported as important for RNA binding, RNA recognition and high affinity HuR-RNA complex formation. […]

Musashi-1 (Msi1) = Musashi-1 (Msi1) (Homo sapiens, UniProt O43347); experiment: Binding to Musashi-1 (unpublished data); conditions: authors' unpublished data
HuR full length [5] = target: T6, HuR full length (UniProt Q15717 1-326); experiment: fluorescence polarization; 2 nM RNA; FP: room temperature, 2 h incubation in the competition assay, buffer not given (as in cited ref 22); NMR: 100 mM NaCl, 10 mM sodium phosphate pH 6.8, 10% D2O; conditions: protein: recombinant; single strand
HuR RRM1/2 [6] = target: HuR RRM1/2 (UniProt Q15717 18-186); experiment: as above; conditions: protein: recombinant; tags: N-terminal His6 (retained); single strand
HuR full length [7] = target: T6, HuR full length; experiment: fluorescence polarization; 10 nM HuR, 2 nM RNA; complex disrupted by AZA-9 (compound IC50 1.1 uM); FP: room temperature, 2 h incubation in the competition assay, buffer not given (as in cited ref 22); NMR: 100 mM NaCl, 10 mM sodium phosphate pH 6.8, 10% D2O; conditions: protein: recombinant; single strand

T6 sequence (Q15717 whole entry): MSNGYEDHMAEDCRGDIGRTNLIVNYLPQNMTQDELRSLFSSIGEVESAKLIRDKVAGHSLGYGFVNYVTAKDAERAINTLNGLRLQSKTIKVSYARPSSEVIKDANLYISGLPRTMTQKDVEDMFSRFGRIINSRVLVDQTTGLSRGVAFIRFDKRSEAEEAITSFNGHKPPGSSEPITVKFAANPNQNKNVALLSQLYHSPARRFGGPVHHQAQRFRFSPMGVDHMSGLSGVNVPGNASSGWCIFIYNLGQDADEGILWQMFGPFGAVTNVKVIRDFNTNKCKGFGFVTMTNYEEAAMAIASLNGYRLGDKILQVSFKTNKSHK
T2 sequence (Q15717 whole entry): as above
Sequence of Musashi-1 (Msi1) (O43347 whole entry, species assumed): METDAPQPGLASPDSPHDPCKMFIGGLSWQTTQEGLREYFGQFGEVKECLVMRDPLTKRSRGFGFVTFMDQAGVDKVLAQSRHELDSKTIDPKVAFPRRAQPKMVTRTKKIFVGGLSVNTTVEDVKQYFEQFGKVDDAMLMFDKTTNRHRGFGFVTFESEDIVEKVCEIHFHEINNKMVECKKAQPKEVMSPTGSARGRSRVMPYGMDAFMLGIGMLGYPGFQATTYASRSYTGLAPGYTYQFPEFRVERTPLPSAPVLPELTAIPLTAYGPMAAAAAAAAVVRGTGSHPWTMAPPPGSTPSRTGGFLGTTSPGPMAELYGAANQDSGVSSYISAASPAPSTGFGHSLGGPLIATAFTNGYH
T3 sequence (Q15717 18-186): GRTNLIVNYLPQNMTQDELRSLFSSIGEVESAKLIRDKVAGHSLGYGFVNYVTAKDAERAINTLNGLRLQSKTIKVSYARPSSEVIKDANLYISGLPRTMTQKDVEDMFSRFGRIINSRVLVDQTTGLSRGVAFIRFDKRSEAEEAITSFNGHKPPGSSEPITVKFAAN
Sequence of HuR RRM1/2 (UniProt Q15717 18-186) (Q15717 18-186): as above
T5 sequence (Q15717 18-186): as above
T1 sequence (Q15717 whole entry): as the sequence (Q15717 whole entry) above
T4 sequence (Q15717 whole entry): as above

IC50 [1]: 1100 nM
IC50 [2]: ~1200 nM and 1200 nM
IC50 [3]: 7400 nM
reduction of NMR peak intensity of residue R97 (HuR RRM1/2 [4]): ~ 50%
binding to Musashi-1 (in words) (Musashi-1 (Msi1)): also binds
Molecule: CC[C@H](C)/C=C(C)/C=C/C1=CC2=C(Br)C(=O)C(C)(OC(C)=O)C(=O)C2=CO1 (stereo partly drawn) [AZA-9, azaphilone-9]
SPR optical response on immobilized HuR (in words) (HuR): increased optical response in a dose-dependent manner

Molecule: AUUUUUAUUUU (ssRNA) [AREc-fos (fluorescein)]
Kd (HuR full length [5]): 3.3 nM
Kd (HuR RRM1/2 [6]): 22.2 nM

Molecule: GCUUUUAUUUAUUUUG (ssRNA) [AREMsi1 (fluorescein)]
binding result (HuR full length [7]): binds

Reference: paper PMC5393604, “The fungal natural product azaphilone-9 binds to HuR and inhibits HuR-RNA interaction in vitro” (PLoS ONE, 2017)
